Where a name gives a salt, the structure may show the parent alone.

For one assay, the target named is T1, human platelet PLA2 (Homo sapiens, UniProt P14555).
T1 sequence (P14555 21-144): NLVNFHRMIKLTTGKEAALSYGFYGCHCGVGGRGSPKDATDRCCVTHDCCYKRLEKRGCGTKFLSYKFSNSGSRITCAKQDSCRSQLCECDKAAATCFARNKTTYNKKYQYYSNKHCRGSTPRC
In words: Inhibition of cell free human platelet PLA2 (hydrolysis of [3H]-AA labelled E. coli phospholipids). Type of assay: biochemical. As to conditions: Table 1; compounds of the invention; human platelet PLA2, pH 7.4, 37° C., 30 minutes. As to the method: The ability of the compounds of the invention to inhibit the activity of cell free human platelet PLA2 enzyme is measured in the following in vitro assay.
(§1) The assay is carried out as follows:
E. coli, cultured to exponential growth, are sedimented for 15 minutes at 10,000 g and resuspended in sterile isotonic saline (1-3 ml). 10-25 μCi uniformly labeled [^3 H]-arachidonic acid (AA) is added to a sterile flask, evaporated by N2 and resolubilized with 0.3 ml 20% fatty acid-free bovine serum albumen (BSA). 75-100 ml of nutrient broth and 1 ml E. coli are then added to each flask and incubated for 2-3 hours at 37° C. [^3 H]-AA labelled E. coli are then sedimented, suspended in saline and added to fresh nutrient broth and incubated for 1.5 hours at 37° C. to complete [^3 H]-AA incorporation into the phospholipids. After overnight refrigeration of cultures, E. coli are again sedimented, suspended in saline and autoclaved for 15 minutes at 120° C. E. coli cultures are washed twice with saline (first wash contains 1% BSA) and resuspended in saline. Non-labelled E. coli cultures are also prepared in the same manner. Cell number is determined by measuring the optical density at 550 nm ([…]=1 O.D.). The amount of radioactivity associated with cells is determined by counting a defined volume of cell suspension. The specific activity is subsequently adjusted by adding non-labelled E. coli to yield 10,000 cpm/10 […] of E. coli/25 ml.
Platelet PLA2 Preparation
Expired human platelets from the blood bank are centrifuged for 15 minutes at 200 g to obtain a platelet rich fraction and to remove the red blood cells. Platelets are sedimented for 15 minutes at 2500 g and the plasma is removed before adding cold 0.18N H2 SO4 (4ml/unit). Platelets are homogenized, incubated for 1 hour at 4° C., homogenized again and centrifuged for 15 minutes at 10,000 g. The PLA2 enriched supernatant fluid is removed and the amount of protein is determined by the Lowry method. The preparation is divided into various portions and stored at -20° C.
The assay measures the hydrolysis of E. coli membrane phospholipids via the release of free [^3 H]-AA from the C-2 position of phospholipids by human platelet PLA2. To ice cold 15×100 mm test tubes, the following additions are made; 2.5×10^8 E. coli (equivalent to 5 nmol phospholipid), 5 mM Ca^++, 100 mM Tris buffer (pH=7.4), 100 μg platelet extract (or an amount to produce 20-30% hydrolysis), drug or vehicle. Incubations are carried out at 37° C. in a shaking water bath for 30 minutes. The reaction is terminated by the addition of 2 volumes of tetrahydrofuran (THF) and the mixture is vortexed. Hydrolyzed [^3 H]-AA is separated from unhydrolyzed phospholipid by solid phase extraction using Bond elute NH2 columns (Analytichem Internat.). Columns are conditioned with 0.5 ml THF followed by 0.5 ml THF:H2 O (2.0:0.1 ml/v/v). Samples are loaded onto columns and hydrolyzed [^ 3 H]-AA is eluted with 1 ml THF:glacial acetic acid (98.0:2.0 ml v/v). The eluant is transferred to vials, 10 ml Optifluor is added and the radioactivity is determined by liquid scintillation counting.
Treatments are corrected for non-enzymatic hydrolysis by subtracting the dpms in treatments containing no enzyme Mean [^3 H]-AA dpm is determined and a percent inhibition relative to vehicle treated samples is calculated.
The percent hydrolysis is calculated by the following equation: [formula]

Assay [1] relates to rat carrageenan paw edema. The assay can be described thus: Rat carrageenan paw edema. Type of assay: in vivo, rat (Sprague-Dawley). The settings on record: for ED50: Rattus norvegicus, po, 3 h, read-out: Oral ED50 (95% C.L.); for % Inhibition at 50 mg/kg (peroral): Table 5, 1 hour prior to carrageenan, edema at 3 hours. As to the method:
The compounds in the scope of the invention are further tested in the rat carrageenan paw edema to determine their ability to inhibit the acute inflammatory response. This assay is carried out as follows: […] male Sprague-Dawley rats, in groups of 6 animals are injected subcutaneously in the right paw with 0.1 ml of 1% carrageenan at zero time. Mercury plethysmographic readings (ml) of the paw are made at zero times and 3 hours later. Test compounds are suspended or dissolved in 0.5% methylcellulose and given perorally 1 hour prior to carrageenan administration. The increase in paw volume (edema in ml.) produced by the carrageenan is measured. […] Unpaired Student's t-test is used to determine statistical significance.
(In general: Carrageenan injected into the paw causes an acute inflammation.)

Assay [2] concerns synthesis of LTB4 by rat glycogen-elicited polymorphonuclear leukocytes (PMN). The assay can be described thus: Inhibition of LTB4 synthesis by rat glycogen-elicited polymorphonuclear leukocytes in the presence of exogenous substrate. It counts as cell-based. As to conditions: Leukocyte, A23187 stimulated; for inhibition at 10 µM: Table 2, at 10 μM.
Excerpt: This is especially true with respect to 5,12-diHETE, which is also denoted as LTB4 [see Ford-Hitchinson, J. Roy. Soc. Med., 74, 831 (1981)]. Compounds which inhibit the PLA2 -mediated release of arachidonic acid thereby effectively prevent the oxidation of arachidonic acid to the various leukotriene products via the lipoxygenase cascade. Accordingly, the specificity of action of PLA2 inhibitors can be determined by the activity of test compounds in this assay, which measures the ability of compounds to inhibit the synthesis of LTB4 by rat glycogen-elicited polymorphonuclear leukocytes (PMN) in the presence of exogenous substrate.
as §1
(§2) Rat polymorphonuclear leukocytes (PMNs) are obtained from female Wistar rats (150.200 g) which receive an injection of 6% glycogen (10 ml i.p.). Rats are sacrificed 18-24 hours post injection by CO2 asphyxiation and the elicited cells are harvested by peritoneal lavage using physiological saline (0.9% NaCl). The exudate is centrifuged at 400×g for 10 minutes. The supernatant fluid is discarded and the cell pellet is resuspended to a concentration of 2.0×10^7 cells/ml in HBSS containing Ca^++ and Mg^++ and 10 μM L-cysteine.
(§3) To 1 ml aliquots of cell suspension, test drugs or vehicle are added, then preincubated at 37° C. for 10 minutes. A23187 (1 μM), [^3 H]-AA (3.0 μCi/ml) and unlabeled AA (1 μM) are then added and the samples are further incubated for 10 minutes. The reaction is terminated by centrifugation and pelleting cells. Supernatants are then analyzed by HPLC analysis on a 15 cm×4.6 mm ID Supelcosil LC-18 (Supelco)(3M) column, using a two solvent system at a flow rate of 1.4 ml total flow as follows:
Gradient: (system is equillibrated with Solvent A)
Percent solvent changes are accomplished in a linear fashion.
(§4) Injections: 150 μl of each supernatant is injected directly onto column and ^3 H arachidonic acid metabolites are monitored using an on-line radioactivity detector (Ramona, IN/US, Fairfield, NJ).
Standards: 10^4 -2.0×10^4 dpm of eicosanoids of interest are injected in 90 μl EtOH cocktail.
Co-chromatography with standard [^3 H] leukotriene B4 (LTB4) in medium of stimulated PMN exposed to drug is compared to that found in medium of stimulated cells exposed to no drug, generating percent inhibition.
(§5) Results are expressed as percent inhibition at a given compound dose.

For assay [3], the system named is synthesis of TxB2 by rat glycogen-elicited polymorphonuclear leukocytes. The assay can be described thus: Inhibition of synthesis of the cyclooxygenase product TxB2 (procedure of Example 7). As to conditions: Leukocyte, rat PMN, A23187 stimulated; for inhibition at 10 µM: Table 3, at 10 μM. Type of assay: cell-based. As to the method: as §2, §3, §4, §5
In this assay, the procedure of Example 7 is carried out as described. However, in order to determine cyclooxygenase activity, the samples are co-chromatographed with authentic reference [^3 H]-TxB2.
The results are calculated as in Example 7 and presented below: […]

In the case of `OC[C@H](Cc1ccc(O)cc1)NCCCCCCCCCCc1ccccc1` [Example 5, (S)-4-hydroxy-α-[(10-phenyldecyl)amino]benzenepropanol, hydrochloride], the 50% inhibitory concentration (IC50) (in general, the concentration that inhibits the measured activity by half) against human platelet PLA2 turned out to be 48 µM.
As for `COc1ccc2c(c1)c(CC(=O)O)c(C)n2C(=O)c1ccc(Cl)cc1` [Indomethacin, reference compound], the ED50 (commonly the dose that gives a 50% effect, or the effect in half of the subjects) in assay [1] was found to be 3.7 mg/kg.
As to `Cl.OC[C@@H]1CCCN1CCCCCCCCCCCOc1ccccc1` [Example 3a, (S)-1-(11-phenoxyundecyl)-2-pyrrolidinemethanol, hydrochloride], the IC50 against human platelet PLA2 came out at 17 µM. Further, the figures for the inhibition at 10 µM in assay [2] and in assay [3] were 0% and 37%, respectively. For the same molecule, the % Inhibition (commonly the relative decrease from the control value, in per cent) at 50 mg/kg (peroral) in assay [1] is on record as 26%.
For the molecule `CCCCCCCCCCCCCCCCCCNC(CO)CCCC.Cl` (centres unmarked) [Example 1, 2-(Octadecylamino)-1-hexanol, hydrochloride], on human platelet PLA2, the midpoint of inhibition, the IC50, lay at 12 µM. Moreover, the inhibition (as a rule, how much of the control response was suppressed) at 10 µM in assay [2] was 24%; in assay [3] it was 26%. In addition, the “% Inhibition at 50 mg/kg (peroral)” value in assay [1] was 26%.
As for `COC(=O)C1CCCN1CCCCCCCCCCCOc1ccccc1` (racemic) [Example 3b, 1-(11-Phenoxyundecyl)-DL-proline methyl ester, hydrochloride], it took 63 µM to reach half-maximal inhibition against human platelet PLA2 (IC50).
For the molecule `CCOC(CNCCCCCCCCCCCOc1ccccc1)OCC.Cl` [Example 4, N-(2,2-diethoxyethyl)-11-phenoxyundecanamine, hydrochloride], the IC50 against human platelet PLA2 was 33 µM. Moreover, the “% Inhibition at 50 mg/kg (peroral)” value in assay [1] was determined as 34%.
With `CCCC[C@@H](CO)NCCCCCCCCc1ccccc1.Cl` [Example 2b, (S)-2[(8-Phenyloctyl)amino]-1-hexanol, hydrochloride], the midpoint of inhibition at human platelet PLA2, the IC50, lay at 45 µM. Further, the inhibition at 5 µM in assay [2] (Table 2, at 5 μM) is 52%; in assay [3] (Table 3, at 5 μM) it was 0%. The “% Inhibition at 50 mg/kg (peroral)” value in assay [1] was 25%.
`CC(=O)Oc1ccccc1C(=O)O` [Aspirin, reference compound]: the ED50 in assay [1] was 145 mg/kg.
`CCCCC(CO)NCCCCCCCCCCc1ccccc1.Cl` (centres unmarked) [Example 2a, 2-[(10-Phenyldecyl)amino]-1-hexanol, hydrochloride] registered an IC50 at human platelet PLA2 of 19 µM. The inhibition at 10 µM in assay [2] is 89%; in assay [3] it was 73%. The “% Inhibition at 50 mg/kg (peroral)” value in assay [1] was 39%.
For the molecule `CCCCC(CO)NCCCCCCc1ccccc1.Cl` (centres unmarked) [Example 2c, 2-[(6-Phenylhexyl)amino]-1-hexanol, hydrochloride], the half-inhibitory concentration (IC50) against human platelet PLA2 is greater than 100 µM. Besides, the inhibition at 10 µM in assay [2] is 16%; in assay [3], 24%. Besides, the “% Inhibition at 50 mg/kg (peroral)” value in assay [1] was determined as 34%.
